Entries after “also recorded” stand apart in the source; their conditions may differ. Read-outs that look alike come from different tables or passages of the source.
How the values were obtained:
[1] = tested on: hexokinase; conditions: 5 μM IAA, 37° C.; inferred from accumulation of FDG
Text: (§1) Then, cells were washed three times with a cold PBS, lysed with 50% ethanol and assayed for metabolites.

[2] = tested on: LS180 cells; test: Effect of extracellular glucose concentration on accumulation and metabolism of FDG and AFDG; assay type: cell-based, human
Method: Then, cells were washed three times with a cold PBS, lysed with 50% ethanol and the lysate was assayed for metabolites.

[3] = tested on: LS180 cells; test: Time-course accumulation of FDG and AFDG in LS180 tumor cells; assay type: cell-based, human
Method: LS180 cells were stripped off from the petri dish using trypsin, inoculated on a plate having 24 holes at a concentration of 20×10^4 cells/ml and subjected to the uptake experiment after 24 hours. […] Radioactivity of the lysed solution was measured by an Autowell gamma counter (ARC-2000, manufactured by Aloka corporation).

[4] = tested on: LS180 cells; test: Effect of DNP on accumulation and metabolism of FDG and AFDG; assay type: cell-based, human
Text: as §1

[5] = tested on: LS180 cells; test: Effect of IAA (hexokinase inhibition) on accumulation and metabolism of FDG and AFDG; assay type: cell-based, human
Text: as §1

[6] = tested on: LS180 cells; test: Effect of administered dose of AFDG on its intracellular accumulation; assay type: cell-based, human; conditions: increase of the dose of AFDG
[7] = tested on: LS180 cells; test: Temperature dependence of intracellular accumulation of AFDG; assay type: cell-based, human; conditions: 60 minutes after administration, 5 μCi
Method: In order to study the temperature dependence of intracellular accumulation of AFDG, an uptake experiment was conducted different from Experiment 1. Cells were suspended in a culture medium at a concentration of 1×10^6 cells/ml and incubated in portions of 1 ml at 4° C. or 37° C. for 15 minutes. Then, 5 μCi of AFDG was added and incubated for 2, 5, 10, 30 and 60 minutes, respectively. At every determined times, cells were centrifuged to make a pellet, which was washed with a cold PBS. After washing twice, the pellet was lysed by 0.2N NaOH solution and assayed for radioactivity.

[8] = tested on: LS180 cells; test: Metabolism of AFDG and FDG in LS180 cells (TLC of metabolites); assay type: cell-based, human
Method: After carrying out an experiment according to Experiment 1, cells were stripped off from the plate using 100 μl of 50% ethanol and the solution was centrifuged at 15000 rpm. A 25 μl aliquot of supernatant was subjected to analysis of metabolites by thin-layer chromatography (TLC). The eluent was acetonitrile/water=95/5, and the carrier was silica gel 60. The plate after development was cut at 5 mm intervals and assayed for radioisotope with a gammer counter. Total radioactivity of respective metabolites were calculated from the ratio of metabolites obtained in TLC.

[9] = tested on: LS180 cells; test: Effect of AFDG administration on accumulation of glucose; assay type: cell-based, human; conditions: amount used in this experiment
[10] = tested on: GLUT; test: Effect of DNP on rate of uptake of 3-OMG (GLUT transport) in LS180 cells; assay type: cell-based, human
Text: While it is known that 2,4-dinitrophenol, an uncoupling agent for mitochondrion, causes expression of GLUT on cell membrane to normal cells by a transient decrease of intracellular ATP as a trigger, it has not been confirmed that it has a similar effect on tumor cells. Therefore, transport of [H-3]-3-O-methylglucose in the DNP-treated tumor cells was studied for the case in which GLUT was inhibited by cytocharasin B and for the case in which it was not inhibited, respectively. [H-3]-3-O-methylglucose is a D-glucose derivative which is not subjected to metabolism such as phosphorylation after take up into cells and therefore can suitably be used in an experiment for studying transport ability of GLUT. In the case of DNP treatment, accumulation of [H-3]-3-O-methylglucose was increased by about 70% as compared with the case of no treatment (Table 1), and therefore it was considered that the amount of GLUT expressed on the cell membrane was increased by 70% with the treatment by DNP. The increase in amount was by far smaller than the increase described for normal cells. This is due to the fact that the amount of GLUT expressed on the tumor cell membrane is by far greater than the amount for normal cells.
For studying uptake of [H-3 ]-3-O-methylglucose (3-OMG) into cells excluding nonspecific bonding, usually cytocharasin B is used. After incubating 10^6 LS180 cells in a medium containing 200 μM DNP placed in a plate having 24 holes, the medium was changed to a medium containing 5 μCi 3-OMG and 200 μM […], respectively, and additionally 50 μM cytocharasin B or a medium without cytocharasin B and the respective cultures were incubated for 60 seconds. Immediately after, the medium was removed and cells were washed three times with a cold PBS containing 0.1 mM phloretin and lysed with 500 μl of 0.2 N NaOH solution. After lysis, a 200 μl portion was used for quantitative determination of proteins and the remaining 300 μl was mixed with a scintillator and radioactivity was measured by a liquid scintillation counter (LSC 5000, manufactured by Aloka corporation). The taken-up amount of 3-OMG which may be inhibited by cytocharasin B was integrated from the difference in mean values of 10 holes in the plate for 3-OMG uptake without cytocharasin B. The results of the experiment are shown in Table 1.

## O=C(O)CI [IAA, iodoacetate]
[1]
  hexokinase activity in the presence of IAA: remarkably decreased

## OC[C@H]1OC(O)[C@H]([18F])[C@@H](O)[C@@H]1O (stereo partly shown) [FDG, 2-[F-18]fluorodeoxyglucose, reference compound]
[2]
  intracellular accumulation on doubling glucose concentration in medium: decreased
[3]
  accumulation in time course: accumulated and increased almost linearly
[4]
  intracellular accumulation in the presence of DNP: increased
[4]; Homo sapiens, LS180, read-out: increase of uptake of FDG with DNP
  activation at 200 µM: ~80%
[5]
  intracellular accumulation in the presence of IAA: remarkably decreased

## CC(=O)OC[C@H]1OC(OC(C)=O)[C@H]([18F])[C@@H](OC(C)=O)[C@@H]1OC(C)=O (stereo partly shown) [AFDG, 1,3,4,6-tetra-O-acetyl-2-[F-18]fluorodeoxyglucose]
[2]; 11.2 mM vs 22.4 mM glucose, 60 minutes
  production of FDG-6P on doubling glucose concentration in medium: did not change; also recorded: no change was observed; also recorded: substantially not affected
[2]; 11.2 mM vs 22.4 mM glucose, 60 minutes, after AFDG: accumulation of FDG (hydrolysate)
  intracellular accumulation on doubling glucose concentration in medium: did not change; also recorded: substantially not affected
[3]; LS180 cells, 2 to 60 minutes, 5 μCi
  accumulation in time course: accumulated rapidly in cells in a nonlinear manner
[3]; concluded from the experiments
  mechanism of uptake into cells: taken up by simple diffusion
[6]
  change in intracellular accumulation with administered dose: increased with the increase of the dose of AFDG
[7]
  accumulation of AFDG at 4° C. relative to that at 37° C.: one fourth
[8]; 5 minutes after administration
  presence of FDG and FDG-6P in cells after uptake of AFDG: substantially absent
[8]; 60 minutes after administration
  production of FDG-6P from AFDG relative to that from FDG: 1.63 times
[8]; 60 minutes after administration of AFDG
  FDG-6P share of total intracellular radioactivity (sum of AFDG, FDG and FDG-6P): about 50%
[8]; by esterase, intracellular
  hydrolysis of AFDG to FDG in cells: quickly hydrolyzed by esterase to FDG and quickly hydrolyzed to form FDG and fast
[8]; extracellular medium
  stability in the extracellular medium: stable
[8]; intracellular
  velocity of hydrolysis of AFDG compared with phosphorylation of FDG: greater
[8]; time course after 5 minutes
  accumulation of AFDG and that of FDG after administration of AFDG: followed a constant course
  accumulation of FDG-6P after administration of AFDG: increased linearly with passage of time
[9]
  accumulation of glucose when AFDG was administered: not inhibited
[4]; 200 μM DNP, 37° C.
  FDG-6P derived from AFDG in the presence of DNP: decreased
  intracellular accumulation in the presence of DNP: decreased
[5]; 5 μM IAA, 37° C.
  intracellular accumulation in the presence of IAA: remarkably decreased

## O=[N+]([O-])c1ccc(O)c([N+](=O)[O-])c1 [DNP, 2,4-dinitrophenol]
[10]; inferred from 3-OMG accumulation
  increase of amount of GLUT expressed on the cell membrane with DNP: 70%

## CO[C@H]1[C@H](O)[C@@H](CO)OC(O)[C@@H]1O (stereo partly shown) [[H-3]3-OMG, [H-3]-3-O-methylglucose]
[10]; Cytocharasin B absent minus present, 200 μM DNP
  Accumulation of [H-3]3-OMG, Difference, DNP treatment: 3460 dpm/min/100 μg protein
[10]; Cytocharasin B absent minus present, no DNP
  Accumulation of [H-3]3-OMG, Difference, Control: 2014 dpm/min/100 μg protein
[10]; Cytocharasin B absent, 200 μM DNP
  Accumulation of [H-3]3-OMG, DNP treatment: 4763 ± 669 dpm/min/100 μg protein
[10]; Cytocharasin B absent, no DNP
  Accumulation of [H-3]3-OMG, Control: 3235 ± 307 dpm/min/100 μg protein
[10]; Cytocharasin B present (50 μM), 200 μM DNP
  Accumulation of [H-3]3-OMG, DNP treatment: 1303 ± 229 dpm/min/100 μg protein
[10]; Cytocharasin B present (50 μM), no DNP
  Accumulation of [H-3]3-OMG, Control: 1511 ± 231 dpm/min/100 μg protein
[10]; compared with no treatment
  increase of accumulation of [H-3]-3-O-methylglucose with DNP treatment: about 70%
[10]; in parentheses, no DNP
  Difference relative to control, Control: 1.00
[10]; ls180 cells, 200 µM
  Difference relative to control, DNP treatment: 1.71

— patent US5904915A, “Method of diagnosing pathological state of tumor cells using a diagnostic agent for glycometabolic function” (Nihon Medi-Physics Co., Ltd., priority 1996, dated 1999)
